Values of other authors, collected in US6395309B1, “Use of an extract of Alchemilla vulgaris to inhibit angiogenesis” (Weber & Weber GmbH & Co. KG, priority 1998, dated 2002).

Assays:
[1] = clinically tested

| Compound | histamine release from mast cells (mast cells) | toxic effects on clinical testing [1] |
| --- | --- | --- |
| O=c1c(O)c(-c2ccc(O)cc2)oc2cc(O)cc(O)c12 [Campherol] | inhibits histamine release |  |
| Cc1ccc(C(=O)Nc2ccc(S(=O)(=O)O)c3cc(S(=O)(=O)O)cc(S(=O)(=O)O)c23)cc1NC(=O)c1cccc(NC(=O)Nc2cccc(C(=O)Nc3cc(C(=O)Nc4ccc(S(=O)(=O)O)c5cc(S(=O)(=O)O)cc(S(=O)(=O)O)c45)ccc3C)c2)c1 [Sumarin] |  | therapeutic use is questionable because of toxic effects |
